Measured values from patent US9056851B2, “Thiolactone antibiotics” (priority 2011, dated 2015).

Each compound was assayed against C171Q KasA acyl-enzyme mimic (Mycobacterium tuberculosis, UniProt P9WQD9, C171Q).
Type: binding, M. tuberculosis

SMILES	Slow Onset	Slow or Rapid onset of binding to C171QKasA (words in Ki* column)
C=C/C(C)=C/[C@@]1(C)SC(=O)C=C1O [TLM2, 5R-(+)-3-Demethylthiolactomycin]	No	Rapid
C=C/C(C)=C/[C@@]1(C)SC(=O)C(CC)=C1O [TLM3, 5R-(+)-3-Ethylthiolactomycin]	Yes	Slow,
C=C/C(C)=C/[C@@]1(C)SC(=O)C(CCC)=C1O [TLM4, 5R-(+)-3-Propylthiolactomycin]	Yes	Slow,
C=C/C(C)=C/[C@@]1(C)SC(=O)C(CCc2ccc(C)cc2)=C1O [TLM5]	No	Rapid
C=C/C(C)=C/[C@@]1(C)SC(=O)C(CCCCc2ccc(F)cc2)=C1O [TLM6]	No	Rapid
C=C/C(C)=C/[C@@]1(C)SC(=O)C(CCCCc2ccc(Cl)cc2)=C1O [TLM7]	No	Rapid
C=C/C(C)=C/[C@@]1(C)SC(=O)C(CCCCc2ccc(Br)cc2)=C1O [TLM8]	No	Rapid
C=C/C(C)=C/[C@@]1(C)SC(=O)C(CCCCc2ccc(-c3ccccc3)cc2)=C1O [TLM9]	No	Rapid
C=C/C(C)=C/[C@@]1(C)SC(=O)C(CCCN=[N+]=[N-])=C1O [TLM10]	Yes	Slow Onset
C=C/C(C)=C/[C@@]1(C)SC(=O)C(CCc2ccc(Cl)cc2)=C1O [TLM31]	No	
C=C/C(C)=C/[C@@]1(C)SC(=O)C(CCCCN=[N+]=[N-])=C1O [TLM32]	Yes	
C=C/C(C)=C/[C@@]1(C)SC(=O)C(CCCCn2cc(CNC(=O)[C@H](O)C(C)(C)CO)nn2)=C1O [TLM33]	No	
C=C/C(C)=C/[C@@]1(C)SC(=O)C(CCCCn2cc(CNC(=O)c3ccc(NS(=O)(=O)c4ccc(F)cc4)cc3)nn2)=C1O [TLM34]	No	
C=C/C(C)=C/[C@@]1(C)SC(=O)C(C(C)=O)=C1O [TLM35]	Yes	
C=C/C(C)=C/[C@@]1(C)SC(=O)C(C(=O)C(F)(F)F)=C1O [TLM36]	Yes	
C=C/C(C)=C/[C@@]1(C)SC(=O)C(C(=O)OC)=C1O [TLM37]	No	
C=C/C(C)=C/[C@@]1(C)SC(=O)C(C(=O)CCC)=C1O [TLM38]	No	
C=C/C(C)=C/[C@@]1(C)SC(=O)C(C(=O)c2ccccc2C(=O)O)=C1O [TLM39]	No	
C=C/C(C)=C/[C@@]1(C)SC(=O)C=C1OCC(=O)NCCN=[N+]=[N-] [TLM40]	No	
C=C/C(C)=C/[C@@]1(C)SC(=O)C(C(=O)CCCCCCCCCCCCCCC)=C1O [TLM43]	No	
C=C/C(C)=C/[C@@]1(C)SC(=O)C(C(=O)CCCCc2ccc(-c3ccccc3)cc2)=C1O [TLM45]	No	
C=C/C(C)=C/[C@@]1(C)SC(=O)C(C)=C1O [TLM, 5R-(+)-Thiolactomycin]	Yes	Slow,
